Values of other authors, collected in US20240423197A1, “KIT FOR PREPARING HERBICIDAL APPLICATION MIXTURES” (BAYER CROPSCIENCE LP, priority 2021, published 2024).

Details: known HLB value predetermined based on estimation by Griffin's method

| HLB | Substance |
| --- | --- |
| 15 | Polysorbate 80 (polyoxyethylene sorbitan monooleate) [Tween® 80] |
| 4.3 | Sorbitan monooleate [Span® 80] |
